From patent publication EP3974434B1, “MACROLIDE DERIVATIVES, PREPARATION METHOD AND APPLICATION THEREOF” (Zhejiang Hisun Pharmaceutical Co., Ltd., priority 2019, dated 2020)
Where two headings read alike, the source gives them in different places.

Assays:
[1] = target: T1, TRKB (Homo sapiens, UniProt Q16620); experiment: HTRF KinEASE-TK kinase activity inhibition assay, TRKB; format: biochemical; conditions: ATP 10 µM
T1 construct: purchased Carna bioscience 08-187
Source text: The following method was used to determine the inhibition degrees of the compounds of the present invention on the activity of recombinant human NTRK family kinase in vitro. In this method, HTRF®KinEASE-TK tyrosine kinase kit (article number: 62TK0PEB) of Cisbio company was used, and the principle of the kit was based on time-resolved fluorescence resonance energy transfer (TF-FRET), and the inhibition of the compounds on the activity of the NTRK kinase was reflected by determining a phosphorylation degree of a biotinylated polypeptide substrate mediated by NTRK kinase. For detailed experimental operation, please refer to the kit instruction. Recombinant human wild-type NTRK proteins were purchased from Carna bioscience (the article numbers were TRKA #08-186, TRKB #08-187 and TRKC #08-197 respectively), and recombinant human mutant NTRK proteins were purchased from SignalChem (the article numbers were TRKA G595R #N16-12BG-10, TRKA G667C # N16-12CG-10, and TRKC G623R # N18-12CH-10 respectively).
The experimental methods were operated according to the steps in the kit instruction, and were briefly described as follows: a test compound was first dissolved in DMSO to prepare a storage solution, and then diluted in gradient with a buffer provided in the kit. A final concentration of the test compound in the reaction system ranged from 1,000 nM to 0.004 nM. An ATP Km value concentration of each NTRK protein was determined by using an ATP solution diluted in gradient (Sangon Biotech (Shanghai) Co., Ltd., A600311). According to the Km value obtained, the ATP concentrations in the reaction system were set as 100 µM for TRKA, 10 µM for TRKB, 50 µM for TRKC, 7 µM for TRKA(G595R), 1 µM for TRKA(G667C) and 100 µM for TRKC(G623R). The reaction was carried out in a 384-well microplate. Firstly, the compound and a certain amount of corresponding NTRK protein were added to the wells and incubated for 5 minutes to 10 minutes at room temperature. Then, the ATP solution and the biotinylated polypeptide substrate solution were added to the reaction solution and incubated with shaking at room temperature for 60 minutes. Then, an anti-phosphorylated tyrosine antibody coupled with a europium compound and streptavidin coupled with modified allophycocyanin XL665 were added to the reaction, and continuously incubated with shaking at room temperature for 1 hour. After incubation, fluorescence intensity values of each well at an excitation wavelength of 304 nm, and emission wavelengths of 620 nm and 665 nM were determined in a TF-FRET mode on a microplate reader. Compared with the fluorescence intensity ratio of a control group (0.1% DMSO), the percentage inhibition rates of the compound at each concentration were calculated, and the IC50 value of the compound was obtained by performing nonlinear regression analysis for logarithmic value of the compound concentration - inhibition rate by GraphPad Prism 5 software, which can be seen in Table 1. Table 1 IC50 data of the compounds of the present invention on TRK enzyme activity inhibition

[2] = test system: BAF3 LMNA-TRKA^G667C; experiment: Cell proliferation assay (CellTiter-Glo), BAF3 LMNA-TRKA G667C; format: cell-based; conditions: Mus musculus, 72 hours
Procedure: The following method was used to determine the effects of the compounds of the present invention on cell proliferation. BAF3 cells were purchased from National Infrastructure of Cell Line Resource (Beijing Headquarter). For TRKA, BAF3 cells were used to construct […] stable cell lines of BAF3 LMNA-TRKA^WT and BAF3 LMNA-TRKA^G667C.The above […] cell lines were used to determine the inhibition of the compounds on cell activities. The cells were cultured in an RPMI 1640 medium containing 10% fetal bovine serum, 100 U penicillin and 100 µg/mL streptomycin. The cells were cultured in a 5% CO2 incubator at 37°C. The activities of the cells were determined by CellTiter-Glo® Luminescent Cell Viability Assay kit (Promega, article number: G7573).
The experimental methods were operated according to the steps in the kit instruction, and were briefly described as follows: a test compound was first dissolved in DMSO to prepare a storage solution, and then diluted in gradient with the corresponding cell culture medium to prepare a test sample. A final concentration of the compound ranged from 1 µM to 0.15 nM. […] After the culture, 50 µL of CellTiter-Glo detection solution was added to each well, shaken for 5 minutes, and then stood for 10 minutes, and the luminescence values of each well were read on the microplate reader using a Luminance mode. […]

[3] = Pharmacokinetic study on ICR mice (plasma, LC-MS/MS); format: in vivo; conditions: male, mouse; for bioavailability: 5 mg/kg oral intake vs 1 mg/kg injection, read-out: Bioavailability F(%); for AUC(0-inf): read-out: Area under curve AUC0-∞; for Cmax: read-out: Blood concentration Cmax; for half-life: read-out: Half-life T1/2(h) (converted); for clearance: read-out: Clearance rate
Procedure: ICR mice, male, 29.0 g to 33.8g, purchased from Beijing Charles River Laboratory Animal Technology Co., Ltd.
Intravenous injection group: an appropriate amount of drug was weighed, and added with mixed solvent (DMA: 30% Solutol HS-15: Saline = 10: 10: 80 (v/v/v)) to prepare the drug with a final concentration of 0.2 mg/mL.
Oral gavage administration group: an appropriate amount of drug was weighed, added with an appropriate amount of sodium carboxymethyl cellulose (CMC-Na, containing 0.5% Tween 80), vortex shaked, and ultrasonically prepared into […] suspension.
For ICR mice, each compound to be tested was divided into an intravenous injection group (9 mice in each group) and an intragastric group (9 mice in each group). The ICR mice were fasted overnight and then administered by orbital intravenous injection (administration dose of 1 mg/kg, and administration volume of 5 mL/kg) and administered by intragastric injection (administration dose of 5 mg/kg, and administration volume of 10 mL/kg), and ate 4 hours after administration.
About 0.2 mL of blood was collected via jugular vein before administration and 0.083 hour, 0.25 hour, 0.5 hour, 1 hour, 2 hours, 4 hours, 8 hours, 12 hours and 24 hours after administration, and heparin sodium was used for anticoagulation. The collected blood samples were placed on ice, and plasma was separated by centrifugation (centrifugation condition: 1500 g, 10 minutes). The collected plasma was stored at-40°C to -20°C before analysis.
LC-MS/MS was used to determine the contents of different compounds to be tested in mouse plasma after intravenous injection and intragastric administration.
The pharmacokinetic parameters of the compounds of the present invention and the positive control can be seen in Table 8. Table 8 Results of pharmacokinetic parameters

[4] = intravenous, 1 mg/kg, injection

T1 sequence (Q16620 32-822): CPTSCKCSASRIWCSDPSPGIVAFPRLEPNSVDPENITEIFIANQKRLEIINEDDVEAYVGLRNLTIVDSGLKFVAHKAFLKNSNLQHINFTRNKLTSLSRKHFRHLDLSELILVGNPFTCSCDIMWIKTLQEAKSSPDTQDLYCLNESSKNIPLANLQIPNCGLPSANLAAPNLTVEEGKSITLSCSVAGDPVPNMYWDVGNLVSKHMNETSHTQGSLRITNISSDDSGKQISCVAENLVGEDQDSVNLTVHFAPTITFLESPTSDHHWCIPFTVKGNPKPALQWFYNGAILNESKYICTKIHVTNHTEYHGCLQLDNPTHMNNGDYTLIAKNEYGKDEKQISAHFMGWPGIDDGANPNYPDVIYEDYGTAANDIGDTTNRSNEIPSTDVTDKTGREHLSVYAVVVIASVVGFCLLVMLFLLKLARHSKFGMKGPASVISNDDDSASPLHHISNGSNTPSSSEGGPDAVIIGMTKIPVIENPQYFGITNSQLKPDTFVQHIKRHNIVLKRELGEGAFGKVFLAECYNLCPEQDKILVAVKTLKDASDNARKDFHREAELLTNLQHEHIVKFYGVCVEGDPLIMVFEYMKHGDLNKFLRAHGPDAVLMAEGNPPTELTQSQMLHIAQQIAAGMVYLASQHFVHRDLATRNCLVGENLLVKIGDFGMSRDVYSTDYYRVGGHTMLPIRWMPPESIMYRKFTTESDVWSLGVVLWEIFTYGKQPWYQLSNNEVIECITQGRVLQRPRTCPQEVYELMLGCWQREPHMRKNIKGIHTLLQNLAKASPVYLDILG

Compound | IC50 [1] | IC50 [2] | bioavailability [3] | AUC(0-inf) ([3]; 5 mg/kg, oral intake) | Cmax ([3]; 5 mg/kg, oral intake) | half-life ([3]; 5 mg/kg, oral intake) | AUC(0-inf) [3, 4] | clearance [3, 4] | half-life [3, 4]
C[C@H]1Nc2ccn3ncc(c3n2)C(=O)NC[C@@]2(C)Cc3cc(F)cc1c3O2 [Example 8, (3R,11R)-6-fluoro-3,11-dimethyl-10-oxa-2,13,17,1 8,21-pentaazapentacyclo[13.5.2.1^8,11.0^4,9.0^18,22]tric osa-1(21),4,6,8,15(22),16,19-heptaen-14-one] | 0.45 nM | 77.6 nM | 53% | 5620 ng·h/mL | 2260 ng/mL | 1.54 h | 2100 ng·h/mL | 7.9 mL/min/kg | 1.47 h
C[C@H]1Nc2ccn3nc(N)c(c3n2)C(=O)NC[C@@]2(C)Cc3cc(F)cc1c3O2 [Example 25, (3R,11R)-16-amino-6-fluoro-3,11-dimethyl-10-oxa-2,13,17,18,21-pentaazapentacyclo[13.5.2.1^8,11.0^4,9. 0^18,22]tricosa-1(21),4,6,8,15(22),16,19-heptaen-14-one] | 1.17 nM | 46.7 nM | 47% | 4850 ng·h/mL | 1050 ng/mL | 3.15 h | 2060 ng·h/mL | 8.11 mL/min/kg | 1.54 h
